In US20070259087A1, “Antimicrobial Peptides” (Novozymes A/S, priority 2003, published 2007):

System: E. coli TOP10
Format: cell-based
Settings: end point OD450 after 14 hours, 37 degrees Celsius
Protocol: A range of synthetic antimicrobial polypeptides were expressed in E. coli TOP10 (Invitrogen) using arabinose as inducer, as disclosed in Example 1 of International patent application WO 00/73433 (with minor modifications). […] Briefly, fresh overnight cultures grown in RM medium containing 0.2% glucose and ampicillin (100 μg/ml) were diluted 300-fold into 150 microliter of RM containing 0.2% glycerol and ampicillin (100 μg/ml) and different concentrations of arabinose (0, 0.01% or 0.1%) in a microtiter plate and incubated at 37 degrees Celsius with vigorous shaking. The growth curve was monitored by measuring OD450 using a Bioscreen C Microbiology reader (Thermo Electron Corporation) at intervals of 30 minutes for 14 hours (see Invitrogen protocol of the pBAD/gill A, B and C vectors catalogue nos. V450-01 for buffer and media composition). The percentage of growth inhibition was calculated as the end point OD measurement of each sample divided by the end point OD measurement obtained from cells containing the control vector and multiplied by 100. The formula is the following: [formula] where “blank OD” corresponds to the OD of an empty well.

Sequence	Growth inhibition using 0.01% arabinose (%)	Growth inhibition using 0.1% arabinose (%)
GILNIIGRAVKTVLESIR (Synthetic antimicrobial peptide) [SEQ ID NO:25]	97%	99%
GILNKLRKKLKRVLQRIL (Synthetic antimicrobial peptide) [SEQ ID NO:27]	84%	97%
GILSKLKKAIKRILQDVLRWL (Synthetic antimicrobial peptide) [SEQ ID NO:43]	82%	99%
GILSKLKKKAKNAVKMFCRWL (Synthetic antimicrobial peptide) [SEQ ID NO:46]	92%	96%
GILSMLERRWSMYCSIFCRWL (Synthetic antimicrobial peptide) [SEQ ID NO:45]	98%	100%
GLFRKLKKTIKRVLKHVP (Synthetic antimicrobial peptide) [SEQ ID NO:31]	86%	96%
GLFRKLRKKVKKVLKHVL (Synthetic antimicrobial peptide) [SEQ ID NO:23]	91%	98%
GLFSIIMRAVKKVWQRVR (Synthetic antimicrobial peptide) [SEQ ID NO:9]	97%	100%
GLFSILKREIKRTFSNFYRWL (GLFSILKREIKRTFSMFYRWL; Synthetic antimicrobial peptide) [SEQ ID NO:41]	86%	99%
GLFSLLRKTIKKVLQHIR (Synthetic antimicrobial peptide) [SEQ ID NO:32]	91%	99%
GLFTKLRKATKRILEHVL (Synthetic antimicrobial peptide) [SEQ ID NO:3]	81%	87%
GLLEKLRKALKRILQHVL (Synthetic antimicrobial peptide) [SEQ ID NO:12]	91%	97%
GLLGKIRKEGRNFWRVFRRWL (GLLGKIRKEGRMFWRVFRRWL; Synthetic antimicrobial peptide) [SEQ ID NO:38]	86%	92%
GLLGKLKKELKNVLEHIYRWL (Synthetic antimicrobial peptide) [SEQ ID NO:42]	75%	93%
GLLGKLKRKIKKALEGIR (Synthetic antimicrobial peptide) [SEQ ID NO:35]	96%	99%
GLLKTIRKKIKRVLKHVR (Synthetic antimicrobial peptide) [SEQ ID NO:4]	96%	99%
GLLNKIKKTIKRAVQHVL (Synthetic antimicrobial peptide) [SEQ ID NO:18]	76%	92%
GLLNKLKKNVKNIVQHILRWL (Synthetic antimicrobial peptide) [SEQ ID NO:40]	77%	95%
GLLNKLKRALKKVVKHVR (Synthetic antimicrobial peptide) [SEQ ID NO:33]	84%	94%
GLLRILKKKAKKALQHIL (Synthetic antimicrobial peptide) [SEQ ID NO:37]	86%	93%
GLLRKIKMKAKKVLKNIL (Synthetic antimicrobial peptide) [SEQ ID NO:22]	72%	83%
GLLRKLGKKIKRVVKHVG (Synthetic antimicrobial peptide) [SEQ ID NO:10]	98%	100%

Sequence	Growth inhibition using 0.01% arabinose (%)	Growth inhibition using 0.1% arabinose (%)
GLLRKLRKEVKKVLSIFFRWL (Synthetic antimicrobial peptide) [SEQ ID NO:39]	97%	99%
GLLSILKRKSKRILKHIL (Synthetic antimicrobial peptide) [SEQ ID NO:24]	88%	96%
GLLSKIMKAVKRTLKHIL (Synthetic antimicrobial peptide) [SEQ ID NO:16]	89%	99%
GLLSKIRKKLKRVLQSIR (Synthetic antimicrobial peptide) [SEQ ID NO:20]	77%	94%
GLLSKLGKAVKNILEDVV (Synthetic antimicrobial peptide) [SEQ ID NO:28]	98%	100%
GLLSKLKKTVKRVVKHVR (Synthetic antimicrobial peptide) [SEQ ID NO:19]	84%	99%
GLLSKLKRKIKKAVKHIL (Synthetic antimicrobial peptide) [SEQ ID NO:30]	82%	95%
GLLSMLGKAVKRAVQHVL (Synthetic antimicrobial peptide) [SEQ ID NO:26]	97%	100%
GLLSRLRRATKIILKGIR (Synthetic antimicrobial peptide) [SEQ ID NO:14]	72%	88%
GLVTLLKKAMKNALEDVL (Synthetic antimicrobial peptide) [SEQ ID NO:21]	98%	99%
GLWNMLKKKLKKIAQGIR (Synthetic antimicrobial peptide) [SEQ ID NO:15]	73%	88%
GLWRKLKKALKRAVQGVR (Synthetic antimicrobial peptide) [SEQ ID NO:5]	91%	96%
GLWRKLRRKAKKVLQHIL (Synthetic antimicrobial peptide) [SEQ ID NO:13]	94%	100%
GLWSSIKKEAKHALKHIL (Synthetic antimicrobial peptide) [SEQ ID NO:29]	55%	81%
GMLIKLEMEAKKVVKNVL (Synthetic antimicrobial peptide) [SEQ ID NO:17]	96%	99%
GMLKKLKKKTKRAFSVFCRWL (Synthetic antimicrobial peptide) [SEQ ID NO:44]	96%	98%
GMLRKLKRKVKRTLQHVL (Synthetic antimicrobial peptide) [SEQ ID NO:8]	78%	88%
GMLSKLGITIKIAVKHIR (Synthetic antimicrobial peptide) [SEQ ID NO:6]	98%	100%
GWFNKLKTKIKKTLKHVL (Synthetic antimicrobial peptide) [SEQ ID NO:11]	72%	90%
GWFSKLKKTAKKLLQRVL (Synthetic antimicrobial peptide) [SEQ ID NO:7]	76%	82%
GWLKILEKAAKITVKNVL (Synthetic antimicrobial peptide) [SEQ ID NO:36]	98%	97%
GWLRKIGKAVKKVVKRVL (Synthetic antimicrobial peptide) [SEQ ID NO:34]	90%	99%
